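Five compound concentrations were applied to cells in 96-well plates for 48 hours; endpoints were derived by simple linear interpolation of the resulting dose-response curve. At the GI50, growth is halved.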 Calls of active or inactive are those of the source. Cut-off read from the data, not from the text of the source: active = GI50 up to about 1.1 µM and inactive = higher.
Tests used:
Assay in all cases: NCI tumour cell line growth inhibition, 48 h
SF-268 = system: SF-268
IGROV-1 = system: IGROV-1
HOP-62 = system: HOP-62
A498 = system: A498
NCI-H226 = system: NCI-H226
CCRF-CEM = system: CCRF-CEM
SNB-75 = system: SNB-75
HCC 2998 = system: HCC 2998
SR = system: SR
LOX IMVI = system: LOX IMVI
RXF 393 = system: RXF 393
COLO 205 = system: COLO 205
T47D = system: T47D
BT-549 = system: BT-549
HOP-92 = system: HOP-92
A549 = system: A549
TK-10 = system: TK-10
OVCAR-5 = system: OVCAR-5
NCI-H460 = system: NCI-H460
M19-MEL = system: M19-MEL

SMILES | GI50 (SF-268) | GI50 (IGROV-1) | GI50 (HOP-62) | GI50 (A498) | GI50 (NCI-H226) | GI50 (CCRF-CEM) | GI50 (SNB-75) | GI50 (HCC 2998) | GI50 (SR) | GI50 (LOX IMVI) | GI50 (RXF 393) | GI50 (COLO 205) | GI50 (T47D) | GI50 (BT-549) | GI50 (HOP-92) | GI50 (A549) | GI50 (TK-10) | GI50 (OVCAR-5) | GI50 (NCI-H460) | GI50 (M19-MEL)
CC1=NN(C(=O)CC(=O)Nc2ccc(C)cc2)C(=O)C1/N=N\c1ccc(S(=O)(=O)c2ccc(/N=N/C3C(=O)N(C(=O)CC(=O)Nc4ccc(C)cc4)N=C3C)cc2)cc1 (centres undefined) | > 100 µM (inactive) | 28.4 µM (inactive) | > 100 µM (inactive) | > 100 µM (inactive) | > 100 µM (inactive) | 9.4 µM (inactive) | > 100 µM (inactive) | 83.6 µM (inactive) | 27.5 µM (inactive) | 16.2 µM (inactive) | > 100 µM (inactive) | > 100 µM (inactive) | > 100 µM (inactive) | > 100 µM (inactive) | > 100 µM (inactive) | 31.6 µM (inactive) | > 100 µM (inactive) | > 100 µM (inactive) | 38.5 µM (inactive) | –
CCOC1OC(=O)c2cc3ccc4c(c3c(-c3ccc5c(c3)OCO5)c21)OCO4 (centres undefined) | 5.46 µM (inactive) | 4.6 µM (inactive) | 4.63 µM (inactive) | 9.4 µM (inactive) | 4.71 µM (inactive) | 9.33 µM (inactive) | 1.08 µM (active) | 2.26 µM (inactive) | 2.04 µM (inactive) | 3.79 µM (inactive) | 5.79 µM (inactive) | 1.55 µM (inactive) | 9.79 µM (inactive) | 4.28 µM (inactive) | 96.8 µM (inactive) | 3.08 µM (inactive) | 4.75 µM (inactive) | 14.5 µM (inactive) | 3.56 µM (inactive) | –
S=C1NCCN1C(=S)NC1CCCCC1 | 34.7 µM (inactive) | 68.1 µM (inactive) | 37.6 µM (inactive) | 18.8 µM (inactive) | 22.2 µM (inactive) | 45.2 µM (inactive) | 19 µM (inactive) | 20.9 µM (inactive) | 35.8 µM (inactive) | 35.8 µM (inactive) | 4.28 µM (inactive) | 27 µM (inactive) | 27.7 µM (inactive) | 21.4 µM (inactive) | 24.8 µM (inactive) | 27 µM (inactive) | 27.6 µM (inactive) | > 100 µM (inactive) | 20.3 µM (inactive) | –
CSC1=NC(=O)CCN1C1OCC(OC(C)=O)C(OC(C)=O)C1OC(C)=O (centres undefined) | 16.9 µM (inactive) | 15.1 µM (inactive) | 18.7 µM (inactive) | 15.6 µM (inactive) | 18.7 µM (inactive) | 5.9 µM (inactive) | 14.7 µM (inactive) | 21.8 µM (inactive) | 4.51 µM (inactive) | > 10 µM (inactive) | 15.8 µM (inactive) | 23.9 µM (inactive) | 16.8 µM (inactive) | 15.1 µM (inactive) | 14.8 µM (inactive) | 18.6 µM (inactive) | 17.1 µM (inactive) | 19.6 µM (inactive) | 10.4 µM (inactive) | –
CC(=O)OCC1OC(N2C(c3ccccc3)=CC(c3ccccc3)C(C#N)=C2S)C(OC(C)=O)C(OC(C)=O)C1OC(C)=O (centres undefined) | 5.33 µM (inactive) | 18.2 µM (inactive) | 4.06 µM (inactive) | 20.2 µM (inactive) | 12.7 µM (inactive) | > 61.2 µM (inactive) | 10.4 µM (inactive) | 25.4 µM (inactive) | 42 µM (inactive) | 4.49 µM (inactive) | 3.17 µM (inactive) | 1.89 µM (inactive) | 3.99 µM (inactive) | 5.57 µM (inactive) | 3.81 µM (inactive) | 7.62 µM (inactive) | 22.2 µM (inactive) | 14.6 µM (inactive) | 5.48 µM (inactive) | –
N#Cc1ccccc1OCCOc1ccccc1C#N | > 100 µM (inactive) | > 100 µM (inactive) | > 100 µM (inactive) | > 100 µM (inactive) | > 100 µM (inactive) | > 100 µM (inactive) | 61.9 µM (inactive) | > 100 µM (inactive) | > 100 µM (inactive) | > 100 µM (inactive) | > 100 µM (inactive) | > 100 µM (inactive) | > 100 µM (inactive) | > 100 µM (inactive) | > 100 µM (inactive) | > 100 µM (inactive) | > 100 µM (inactive) | > 100 µM (inactive) | > 100 µM (inactive) | –
CSC(C1c2ccccc2N(c2ccc(C)cc2)C2=NC(=O)N(C)C(=O)C21Cl)S(=O)(=O)c1ccc(C)cc1 (centres undefined) | 23.6 µM (inactive) | 33.3 µM (inactive) | 20.7 µM (inactive) | 33 µM (inactive) | 22.2 µM (inactive) | 10.8 µM (inactive) | 23 µM (inactive) | 20.4 µM (inactive) | – | 20.5 µM (inactive) | – | 19.3 µM (inactive) | – | – | 11 µM (inactive) | 34 µM (inactive) | 48.6 µM (inactive) | 35.3 µM (inactive) | 24 µM (inactive) | 23.7 µM (inactive)
CSC(=O)/C=C1\SS/C(=C\C(=O)SC)S1 | 2.49 µM (inactive) | 3.37 µM (inactive) | 7.35 µM (inactive) | 7.89 µM (inactive) | 1.77 µM (inactive) | 1.88 µM (inactive) | 2.58 µM (inactive) | 1.8 µM (inactive) | 1.96 µM (inactive) | 1.55 µM (inactive) | 1.24 µM (inactive) | 6.31 µM (inactive) | 5.83 µM (inactive) | 1.69 µM (inactive) | 2.83 µM (inactive) | 6.24 µM (inactive) | 4.93 µM (inactive) | 3.98 µM (inactive) | 2.26 µM (inactive) | –

Reference: ChEMBL document CHEMBL1201862, “PubChem BioAssay data set” (2004)
